What follows are compounds tested against T1, Glycogen phosphorylase, muscle form (Oryctolagus cuniculus, UniProt P00489) (assay: Competitive inhibition of rabbit muscle glycogen phosphorylase b).
T1 sequence (P00489 whole entry): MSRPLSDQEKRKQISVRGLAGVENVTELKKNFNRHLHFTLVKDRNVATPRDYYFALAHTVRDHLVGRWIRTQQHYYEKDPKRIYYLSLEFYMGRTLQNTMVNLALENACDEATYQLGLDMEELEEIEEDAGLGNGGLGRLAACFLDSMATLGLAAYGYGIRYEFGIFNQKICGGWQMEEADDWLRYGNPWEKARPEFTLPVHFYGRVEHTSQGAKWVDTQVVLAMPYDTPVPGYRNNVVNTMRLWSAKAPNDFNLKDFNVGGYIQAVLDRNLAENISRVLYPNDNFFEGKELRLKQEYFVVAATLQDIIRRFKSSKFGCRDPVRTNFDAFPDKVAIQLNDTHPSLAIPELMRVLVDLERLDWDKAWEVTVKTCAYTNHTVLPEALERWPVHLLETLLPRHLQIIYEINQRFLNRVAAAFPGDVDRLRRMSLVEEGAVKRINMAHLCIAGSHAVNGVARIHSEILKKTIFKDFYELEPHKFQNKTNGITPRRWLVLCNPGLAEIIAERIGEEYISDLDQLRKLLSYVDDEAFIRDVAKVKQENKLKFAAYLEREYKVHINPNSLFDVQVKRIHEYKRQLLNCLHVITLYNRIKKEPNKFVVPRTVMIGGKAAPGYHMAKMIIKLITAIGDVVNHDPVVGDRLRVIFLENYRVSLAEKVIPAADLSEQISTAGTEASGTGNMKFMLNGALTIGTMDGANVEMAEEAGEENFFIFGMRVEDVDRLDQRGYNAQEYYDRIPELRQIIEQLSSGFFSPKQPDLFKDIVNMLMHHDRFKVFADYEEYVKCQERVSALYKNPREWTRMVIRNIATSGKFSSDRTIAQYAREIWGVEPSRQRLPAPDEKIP
Parameters: species or system Muscle tissue
With `OC[C@H]1O[C@@H](c2nnc(-c3ccccc3)[nH]2)[C@H](O)[C@@H](O)[C@@H]1O` the Ki was 7 µM. In the case of `OCc1n[nH]c([C@@H]2O[C@H](CO)[C@@H](O)[C@H](O)[C@H]2O)n1`, the Ki is reported as 105 µM. `OC[C@H]1O[C@@H](c2nc(-c3ccc4ccccc4c3)n[nH]2)[C@H](O)[C@@H](O)[C@@H]1O` gave a Ki of 0.41 µM.

Reference: ChEMBL document CHEMBL2406926, “C-Glucopyranosyl-1,2,4-triazoles As New Potent Inhibitors of Glycogen Phosphorylase” (ACS Med Chem Lett, 2013)
